Data on 2 compounds can be found in US20080025946A1, “INTERLEUKIN 21 AND TYROSINE KINASE INHIBITOR COMBINATION THERAPY” (priority 2006, published 2008).

The test system of one assay is RenCa.2 tumors. The assay is described as follows: Concurrent mIL-21 and high dose sorafenib: survival of mice bearing RenCa.2 tumors. The class given is in vivo, mouse. The conditions noted are these: BALB/c mice, s.c. RenCa; from day 5: 50 μg mIL-21 i.p. 5/9/5 and/or 60 mg/kg sorafenib oral gavage 10 days; n=10/group. On the procedure:
Survival of mice receiving the treatments were monitored over 35 days.
Survival of mice were monitored over 35 days.
Ten-week old female BALB/c mice (Charles River Laboratories) were injected s.c. on the right flank with 0.1×10^6 RenCa cells on Day 0. […] Tumor growth was monitored 3×/week for 3 weeks using caliper measurements. Survival of mice were monitored over 35 days. Tumor bearing mice were terminated as per IACUC policies with regard to maximal tumor size (1200 mm^3) or weight loss of >=20% of initial body weight.

Assay [1] concerns murine model of renal adenocarcinoma (RenCa). The conditions noted are these: cited from earlier work.
For the next assay, the system named is RenCa.2 tumor. The assay is described as follows: Concurrent mIL-21 and sub-maximal sorafenib: RenCa.2 tumor growth in mice. The class given is in vivo, mouse. On the procedure:
Tumor volume was monitored 3×/week for 3 weeks.
Ten-week old female BALB/c mice (Charles River Laboratories) were injected s.c. on the right flank with 0.1×10^6 RenCa.2 cells on Day 0. […] Tumor growth was monitored 3×/week for 3 weeks using caliper measurements. Tumor volume is calculated using the formula ½*(B)2*L (mm3).

Assay [2] concerns RenCa.2 mouse renal cell carcinoma model. The conditions noted are these: RenCa.2 model.

Read-outs that look alike come from different tables or passages of the source.

Regarding `CNC(=O)c1cc(Oc2ccc(NC(=O)Nc3ccc(Cl)c(C(F)(F)F)c3)cc2)ccn1` [sorafenib], in the assay with RenCa.2 tumors, the “% mice surviving at Day 35” value stood at 50%. The “inhibition of tumor growth” value is recorded as 30% in assay [1] (7.5 mg/kg daily) and 84% in assay [1] (60 mg/kg daily). Further, the “inhibition of tumor growth (in words)” value in the assay with RenCa.2 tumor (25 μg mIL-21 and/or 2 mg/kg sorafenib, RenCa.2 model) is on record as “partially effective”. The “Tumor volume mm3 + SD(Day21)” value in the assay on RenCa.2 tumor (BALB/c mice, s.c. RenCa.2, from day 3: 25 μg mIL-21 i.p. 5 days and/or 2 mg/kg sorafenib oral gavage 10 days, Day 21, n=10/group) was 790.3 + 398.8 mm3. For the same compound, the “doses at which partially effective in mediating tumor clearance” value in assay [2] is listed as “below 10 mg/kg”.
For the compound `CCN(CC)CCNC(=O)c1c(C)[nH]c(/C=C2\C(=O)Nc3ccc(F)cc32)c1C` [sunitinib], the “doses at which maximally effective in mediating tumor clearance” value in assay [2] (sunitinib orally administered) is given as “above 40 mg/kg”.
